According to ChEMBL document CHEMBL5370585, “Exploration and Biological Evaluation of 1,3-Diamino-7H-pyrrol[3,2-f]quinazoline Derivatives as Dihydrofolate Reductase Inhibitors” (J Med Chem, 2023):
In brackets after ≈: the same amount, converted by molar mass.

Key:
[1] = target: T1, Dihydrofolate reductase (Homo sapiens) (UniProt P00374); assay: Inhibition of human DHFR at 1 uM incubated for 10 mins in presence of NADPH by colorimetry based analysis relative to control
T1 sequence (whole entry): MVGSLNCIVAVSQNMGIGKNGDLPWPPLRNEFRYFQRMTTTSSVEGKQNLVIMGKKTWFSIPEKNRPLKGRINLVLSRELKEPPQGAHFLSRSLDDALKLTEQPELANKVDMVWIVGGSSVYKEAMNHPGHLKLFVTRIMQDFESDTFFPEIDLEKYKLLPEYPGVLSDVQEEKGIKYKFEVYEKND

Staphylococcus aureus [2] = assay: Antibacterial activity against Staphylococcus aureus ATCC 29213 incubated for 16 to 18 hrs by CLSI based broth dilution method; assay type: functional; settings: time 16-18 hrs
Acinetobacter baumannii = assay: Antibacterial activity against Acinetobacter baumannii ATCC 19606 incubated for 16 to 18 hrs by CLSI based broth dilution method; assay type: functional; settings: time 16-18 hrs
Staphylococcus aureus [3] = assay: Antibacterial activity against methicillin-resistant Staphylococcus aureus ATCC 43300 incubated for 16 to 18 hrs by CLSI based broth dilution method; assay type: functional; settings: time 16-18 hrs
MCF7 = assay: Cytotoxicity against human MCF7 cells measured after 72 hrs by MTT assay; assay type: functional, cell-based; settings: MCF7, 72 h
HGC-27 = assay: Cytotoxicity against human HGC-27 cells measured after 72 hrs by MTT assay; assay type: functional, cell-based; settings: HGC-27, 72 h
Escherichia coli = assay: Antibacterial activity against Escherichia coli ATCC 25922 incubated for 16 to 18 hrs by CLSI based broth dilution method; assay type: functional; settings: time 16-18 hrs
HepG2 = assay: Cytotoxicity against human HepG2 cells measured after 72 hrs by MTT assay; assay type: functional, cell-based; settings: HepG2, 72 h
Enterococcus faecalis = assay: Antibacterial activity against Enterococcus faecalis ATCC 29212 incubated for 16 to 18 hrs by CLSI based broth dilution method; assay type: functional; settings: time 16-18 hrs
[4] = tested on: Staphylococcus epidermidis; assay: Antibacterial activity against Staphylococcus epidermidis ATCC 12228 incubated for 16 to 18 hrs by CLSI based broth dilution method; assay type: functional; settings: time 16-18 hrs
HCT-116 = assay: Cytotoxicity against human HCT-116 cells measured after 72 hrs by MTT assay; assay type: functional, cell-based; settings: HCT-116, 72 h

Row | SMILES | inhibition [1] | MIC (Staphylococcus aureus [2]) | MIC (Acinetobacter baumannii) | MIC (Staphylococcus aureus [3]) | IC50 (MCF7) | IC50 (HGC-27) | MIC (Escherichia coli) | IC50 (HepG2) | MIC (Enterococcus faecalis) | MIC [4] | IC50 (HCT-116)
1 | Nc1nc(N)c2c(ccc3c2ccn3Cc2nc3ccccc3o2)n1 | 16.1% | 0.5 µg/mL (≈ 1.51 µM) | 16 µg/mL (≈ 48.4 µM) | 0.25 µg/mL (≈ 0.757 µM) | 970 nM | 69 nM | 0.25 µg/mL (≈ 0.757 µM) | 660 nM | 0.25 µg/mL (≈ 0.757 µM) | 0.008 µg/mL (≈ 0.0242 µM) | 40 nM
2 | Nc1nc(N)c2c(ccc3c2ccn3Cc2ccc(B(O)O)c3ccccc23)n1 | 77.4% | 0.25 µg/mL (≈ 0.652 µM) | – | 0.125 µg/mL (≈ 0.326 µM) | 110 nM | < 100 nM | 1 µg/mL (≈ 2.61 µM) | < 100 nM | 0.125 µg/mL (≈ 0.326 µM) | ≤ 0.004 µg/mL | < 100 nM
3 | Nc1nc(N)c2c(ccc3c2ccn3Cc2cc3ccccc3s2)n1 | 70.9% | 0.125 µg/mL (≈ 0.362 µM) | 32 µg/mL (≈ 92.6 µM) | 0.125 µg/mL (≈ 0.362 µM) | 910 nM | 510 nM | 0.25 µg/mL (≈ 0.724 µM) | 270 nM | 0.125 µg/mL (≈ 0.362 µM) | ≤ 0.004 µg/mL | 1940 nM
4 | Nc1nc(N)c2c(ccc3c2ccn3Cc2ccc3ncsc3c2)n1 | 80.6% | 0.25 µg/mL (≈ 0.722 µM) | 16 µg/mL (≈ 46.2 µM) | 0.125 µg/mL (≈ 0.361 µM) | 3870 nM | 310 nM | 0.25 µg/mL (≈ 0.722 µM) | 1170 nM | 0.25 µg/mL (≈ 0.722 µM) | ≤ 0.004 µg/mL | > 10000 nM
5 | Nc1nc(N)c2c(ccc3c2ccn3Cc2ccc3ccccc3c2)n1 | 70.9% | 0.5 µg/mL (≈ 1.47 µM) | – | 0.25 µg/mL (≈ 0.737 µM) | > 1000 nM | 29 nM | 0.5 µg/mL (≈ 1.47 µM) | 110 nM | 0.5 µg/mL (≈ 1.47 µM) | 0.5 µg/mL (≈ 1.47 µM) | 50 nM
6 | Nc1nc(N)c2c(ccc3c2ccn3Cc2ccc3occc3c2)n1 | 64.5% | 0.06 µg/mL (≈ 0.182 µM) | 1 µg/mL (≈ 3.04 µM) | 0.004 µg/mL (≈ 0.0121 µM) | 1000 nM | 410 nM | 0.125 µg/mL (≈ 0.38 µM) | 1250 nM | 0.03 µg/mL (≈ 0.0911 µM) | ≤ 0.004 µg/mL | 2460 nM
7 | Nc1nc(N)c2c(ccc3c2ccn3Cc2ccc3sc(N)nc3c2)n1 | – | > 8 µg/mL | > 32 µg/mL | 8 µg/mL (≈ 22.1 µM) | > 10000 nM | > 10000 nM | > 8 µg/mL | > 10000 nM | > 8 µg/mL | 2 µg/mL (≈ 5.53 µM) | > 10000 nM
8 | COC(=O)c1ccc2nc(Cn3ccc4c5c(N)nc(N)nc5ccc43)sc2c1 | – | 4 µg/mL (≈ 9.89 µM) | > 32 µg/mL | 2 µg/mL (≈ 4.94 µM) | > 10000 nM | 240 nM | > 8 µg/mL | 490 nM | 2 µg/mL (≈ 4.94 µM) | 0.008 µg/mL (≈ 0.0198 µM) | 720 nM
9 | Nc1nc(N)c2c(ccc3c2ccn3Cc2ccc3sccc3c2)n1 | 87% | 0.06 µg/mL (≈ 0.174 µM) | 4 µg/mL (≈ 11.6 µM) | 0.03 µg/mL (≈ 0.0868 µM) | 510 nM | 560 nM | 0.25 µg/mL (≈ 0.724 µM) | 530 nM | 0.06 µg/mL (≈ 0.174 µM) | ≤ 0.004 µg/mL | 8800 nM
10 | Cc1cc2c3c(N)nc(N)nc3ccc2n1Cc1cccc2scnc12 | 99.4% | 1 µg/mL (≈ 2.77 µM) | 8 µg/mL (≈ 22.2 µM) | 1 µg/mL (≈ 2.77 µM) | 450 nM | 4500 nM | > 8 µg/mL | 250 nM | 2 µg/mL (≈ 5.55 µM) | ≤ 0.004 µg/mL | > 10000 nM
11 | Nc1nc(N)c2c(ccc3c2ccn3Cc2ccc3cc(C(=O)O)ccc3n2)n1 | 77.4% | 32 µg/mL (≈ 83.2 µM) | – | 32 µg/mL (≈ 83.2 µM) | 9740 nM | 4210 nM | > 128 µg/mL | 4650 nM | > 8 µg/mL | 0.25 µg/mL (≈ 0.65 µM) | 9570 nM
12 | Nc1nc(N)c2c(ccc3c2ccn3Cc2cc3ccccc3o2)n1 | 29.1% | 0.25 µg/mL (≈ 0.759 µM) | 32 µg/mL (≈ 97.2 µM) | 0.25 µg/mL (≈ 0.759 µM) | 1000 nM | 590 nM | 0.25 µg/mL (≈ 0.759 µM) | 1070 nM | 0.25 µg/mL (≈ 0.759 µM) | ≤ 0.004 µg/mL | 4800 nM
13 | Nc1nc(N)c2c(ccc3c2ccn3Cc2ccc(Br)c3ccccc23)n1 | 74.1% | 0.25 µg/mL (≈ 0.598 µM) | – | 0.125 µg/mL (≈ 0.299 µM) | 190 nM | < 100 nM | 1 µg/mL (≈ 2.39 µM) | < 100 nM | 0.125 µg/mL (≈ 0.299 µM) | ≤ 0.004 µg/mL | < 100 nM
14 | Nc1nc(N)c2c(ccc3c2cc(-c2ccccc2)n3Cc2nc3ccccc3s2)n1 | 17.3% | > 128 µg/mL | > 128 µg/mL | > 128 µg/mL | > 1000 nM | > 1000 nM | > 128 µg/mL | > 1000 nM | 32 µg/mL (≈ 75.7 µM) | 64 µg/mL (≈ 151 µM) | > 1000 nM
15 | Nc1nc(N)c2c(ccc3c2ccn3Cc2cccc3sc(N)nc23)n1 | 77.4% | 0.25 µg/mL (≈ 0.692 µM) | 32 µg/mL (≈ 88.5 µM) | 0.125 µg/mL (≈ 0.346 µM) | 790 nM | 1770 nM | 0.5 µg/mL (≈ 1.38 µM) | 260 nM | 0.25 µg/mL (≈ 0.692 µM) | ≤ 0.004 µg/mL | 5810 nM
16 | COC(=O)c1ccc2nc(Cn3ccc4c5c(N)nc(N)nc5ccc43)ccc2c1 | 64.5% | 0.5 µg/mL (≈ 1.25 µM) | – | 0.25 µg/mL (≈ 0.627 µM) | 850 nM | < 100 nM | 2 µg/mL (≈ 5.02 µM) | 430 nM | 0.25 µg/mL (≈ 0.627 µM) | 0.25 µg/mL (≈ 0.627 µM) | 210 nM
17 | COC(=O)c1ccc(Cn2ccc3c4c(N)nc(N)nc4ccc32)c2ccccc12 | 83.9% | 0.004 µg/mL (≈ 0.0101 µM) | – | 0.004 µg/mL (≈ 0.0101 µM) | 1320 nM | < 100 nM | 2 µg/mL (≈ 5.03 µM) | 190 nM | 0.016 µg/mL (≈ 0.0403 µM) | ≤ 0.004 µg/mL | 180 nM
18 | Nc1nc(N)c2c(ccc3c2ccn3Cc2ccc3nc(N)sc3c2)n1 | 90.2% | 2 µg/mL (≈ 5.53 µM) | > 32 µg/mL | 2 µg/mL (≈ 5.53 µM) | 250 nM | 6 nM | 4 µg/mL (≈ 11.1 µM) | 61 nM | 2 µg/mL (≈ 5.53 µM) | ≤ 0.004 µg/mL | 4 nM
19 | Cc1cc2c3c(N)nc(N)nc3ccc2n1Cc1ccc(-c2ccccc2)cc1 | – | 4 µg/mL (≈ 10.5 µM) | > 32 µg/mL | 4 µg/mL (≈ 10.5 µM) | 1470 nM | 7060 nM | > 8 µg/mL | 1310 nM | 4 µg/mL (≈ 10.5 µM) | ≤ 0.004 µg/mL | 2260 nM
20 | Nc1nc(N)c2c(ccc3c2ccn3Cc2ccc3cc(C(=O)O)ccc3c2)n1 | 98.8% | 0.004 µg/mL (≈ 0.0104 µM) | – | 0.004 µg/mL (≈ 0.0104 µM) | 550 nM | 95 nM | > 128 µg/mL | 140 nM | 50 µg/mL (≈ 130 µM) | ≤ 0.004 µg/mL | 100 nM
21 | CCOC(=O)c1ccc(Cn2ccc3c4c(N)nc(N)nc4ccc32)c2ccccc12 | 70.9% | 0.5 µg/mL (≈ 1.22 µM) | – | 0.25 µg/mL (≈ 0.608 µM) | 8250 nM | < 100 nM | 64 µg/mL (≈ 156 µM) | 530 nM | 0.5 µg/mL (≈ 1.22 µM) | ≤ 0.06 µg/mL | 870 nM
22 | COc1ccc2nc(Cn3ccc4c5c(N)nc(N)nc5ccc43)sc2c1 | 38.7% | 0.5 µg/mL (≈ 1.33 µM) | – | 0.25 µg/mL (≈ 0.664 µM) | 1190 nM | 820 nM | 2 µg/mL (≈ 5.31 µM) | 2710 nM | 0.5 µg/mL (≈ 1.33 µM) | ≤ 0.004 µg/mL | 4420 nM
23 | COc1cc(Cc2cnc(N)nc2N)c2c(c1OC)OC(C1CC1)C=C2 (stereo not given) | – | 0.06 µg/mL (≈ 0.169 µM) | – | 0.06 µg/mL (≈ 0.169 µM) | – | – | 1 µg/mL (≈ 2.82 µM) | – | 0.06 µg/mL (≈ 0.169 µM) | ≤ 0.004 µg/mL | –
